Each structure is given as a SMILES string.

These results are taken from US20260035384A1, “COMPOUND CONTAINING CYCLOHEXYL” (CHIA TAI TIANQING PHARMACEUTICAL GROUP CO., LTD., priority 2022, published 2026).

One assay relates to LNCaP cells. Briefly: Assay on inhibitory activity for LNCaP cell proliferation (CCK-8). It is filed as cell-based. The conditions noted are these: 168 h incubation. Here is the method:
(§1) LNCaP cells in a good growth state were taken, washed with PBS, digested with pancreatin, and added with 2% CSS—FBS phenol red-free 1640 complete medium to terminate the digestion. The cells were collected by using a centrifuge tube, adjusted to a cell density of 1×10^5 cells/mL, and seeded in a 96-well plate (100 μL/well). Meanwhile, compounds were added using a nanoliter pipettor such that the final concentrations of the compounds were 10000 nM-0.61 nM. Two duplicate wells were set for each concentration, and meanwhile, a control was set. After another 168 h of incubation in the cell incubator, the detection reagent CCK-8 (manufacturer: Dojindo, 10 μL/well) was added.

A further assay relates to VCaP cells. Description: Assay on inhibitory activity for VCaP cell proliferation (CCK-8). It is filed as cell-based. As to conditions: 168 h incubation. Here is the method: as §1, with “2.1 Assay on inhibitory activity for VCaP cell proliferation VCaP” for “LNCaP”, “5%” for “2%”, “DMEM” for “1640”

One may read the IC50 as the concentration at which inhibition is half-maximal. Lower therefore signals greater potency in that assay. Consider `N#Cc1ccc(O[C@H]2CC[C@H](NC(=O)c3ccc(C4CCN(C[C@H]5C[C@@H](n6ccc7c8c(C9CCC(=O)NC9=O)noc8ccc76)C5)CC4)nn3)CC2)cc1Cl` (single isomer, unassigned) [Compound 51], for which the IC50 in the assay with LNCaP cells (Homo sapiens) is under 1000 nM.

As for `N#Cc1ccc(O[C@H]2CC[C@H](NC(=O)c3ccc(C4CCN(C[C@H]5C[C@H](n6ccc7c8c(C9CCC(=O)NC9=O)noc8ccc76)C5)CC4)nn3)CC2)cc1Cl` (single isomer, unassigned) [Compound 52], the concentration for half-maximal inhibition (IC50) in the assay on LNCaP cells (Homo sapiens) is under 1000 nM.

The molecule `N#Cc1ccc(O[C@H]2CC[C@H](NC(=O)c3ccc(N4CCC(N5CCc6ccc7c(C8CCC(=O)NC8=O)noc7c6CC5)CC4)nn3)CC2)cc1Cl` (stereo partly shown) [Compound 23] came in with an IC50 with LNCaP cells (Homo sapiens) of under 1000 nM.

In the assay with LNCaP cells (Homo sapiens), `N#Cc1ccc(O[C@H]2CC[C@H](NC(=O)c3ccc(N4CCN(CC5Cc6cc(C7CCC(=O)NC7=O)c7ccoc7c6C5)CC4)nn3)CC2)cc1Cl` (stereo partly shown) [Compound 29] displayed an IC50 of under 1000 nM.

In turn, `N#Cc1ccc(O[C@H]2CC[C@H](NC(=O)c3ccc(C4CCN(CC5Cc6ccc7c(C8CCC(=O)NC8=O)noc7c6C5)CC4)nn3)CC2)cc1Cl` (stereo partly shown) [Compound 30] displayed a concentration for half-maximal inhibition (IC50) in the assay with LNCaP cells (Homo sapiens) of under 1000 nM.

Consider `N#Cc1ccc(O[C@H]2CC[C@H](NC(=O)c3ccc(C4CCN(CC5Cc6ccc7c(C8CCC(=O)NC8=O)noc7c6C5)CC4)nn3)CC2)cc1Cl` (stereo partly shown) [Compound 31], for which, in the assay with LNCaP cells, the IC50 is under 1000 nM.

Molecule `N#Cc1ccc(O[C@H]2CC[C@H](NC(=O)c3ccc(C4CCN(CC5Cc6ccc7c(C8CCC(=O)NC8=O)coc7c6C5)CC4)nn3)CC2)cc1Cl` (stereo partly shown) [Compound 32] gave an IC50 in the assay with LNCaP cells (Homo sapiens) of under 1000 nM.

`N#Cc1ccc(O[C@H]2CC[C@H](NC(=O)c3ccc(C4CCN(CC5Cc6ccc7c(C8CCC(=O)NC8=O)coc7c6C5)CC4)nn3)CC2)cc1Cl` (stereo partly shown) [Compound 33]: the IC50 with LNCaP cells was under 1000 nM.

As to `N#Cc1ccc(O[C@H]2CC[C@H](NC(=O)c3ccc(N4CCC(CN5CC(n6ccc7c8c(C9CCC(=O)NC9=O)noc8ccc76)C5)CC4)nn3)CC2)cc1Cl` (stereo partly shown) [Compound 38], the IC50 in the assay on LNCaP cells (Homo sapiens) is under 1000 nM.

Turning to `N#Cc1ccc(O[C@H]2CC[C@H](NC(=O)c3ccc(N4CCC(N5CC(n6ccc7c8c(C9CCC(=O)NC9=O)noc8ccc76)C5)CC4)nn3)CC2)cc1Cl` (stereo partly shown) [Compound 39], in the assay with LNCaP cells (Homo sapiens), the half-inhibitory concentration (IC50) was under 1000 nM.

With `N#Cc1ccc(O[C@H]2CC[C@H](NC(=O)c3ccc(N4CCC(N5CCC(n6ccc7c8c(C9CCC(=O)NC9=O)noc8ccc76)CC5)CC4)nn3)CC2)cc1Cl` (stereo partly shown) [Compound 40], the 50% inhibitory concentration (IC50) with LNCaP cells (Homo sapiens) was under 1000 nM.

`N#Cc1ccc(O[C@H]2CC[C@H](NC(=O)c3ccc(N4CCC(CN5CC(n6ncc7c8c(C9CCC(=O)NC9=O)noc8ccc76)C5)CC4)nn3)CC2)cc1Cl` (stereo partly shown) [Compound 42] came in with a 50% inhibitory concentration (IC50) in the assay with VCaP cells (Homo sapiens, VCaP, 168 h) of under 10 nM.

For the molecule `N#Cc1ccc(O[C@H]2CC[C@H](NC(=O)c3ccc(N4CCC(N5CC(n6ncc7c8c(C9CCC(=O)NC9=O)noc8ccc76)C5)CC4)nn3)CC2)cc1Cl` (stereo partly shown) [Compound 43], the half-maximal inhibitory concentration (IC50) with LNCaP cells (Homo sapiens) is under 1000 nM.

Take `N#Cc1ccc(O[C@H]2CC[C@H](NC(=O)c3ccc(N4CCC(CN5CC(n6cc7c(ccc8onc(C9CCC(=O)NC9=O)c87)n6)C5)CC4)nn3)CC2)cc1Cl` (stereo partly shown) [Compound 44]: the IC50 in the assay on LNCaP cells (Homo sapiens) is under 1000 nM.

In the assay with LNCaP cells (Homo sapiens), `N#Cc1ccc(O[C@H]2CC[C@H](NC(=O)c3ccc(C4CCN([C@H]5C[C@@H](n6ccc7c8c(C9CCC(=O)NC9=O)noc8ccc76)C5)CC4)nn3)CC2)cc1Cl` (stereo partly shown) [Compound 49] returned an IC50 of under 1000 nM.

In the assay on LNCaP cells (Homo sapiens), `N#Cc1ccc(O[C@H]2CC[C@H](NC(=O)c3ccc(C4CCN([C@H]5C[C@H](n6ccc7c8c(C9CCC(=O)NC9=O)noc8ccc76)C5)CC4)nn3)CC2)cc1Cl` (stereo partly shown) [Compound 50] came in with a half-inhibitory concentration (IC50) of under 1000 nM.

The molecule `N#Cc1ccc(O[C@H]2CC[C@H](NC(=O)c3ccc(C4CCN([C@H]5CC[C@@H](n6ccc7c8c(C9CCC(=O)NC9=O)noc8ccc76)CC5)CC4)nn3)CC2)cc1Cl` (stereo partly shown) [Compound 54] yielded a half-maximal inhibitory concentration (IC50) in the assay with LNCaP cells (Homo sapiens) of under 1000 nM.

In the assay with LNCaP cells (Homo sapiens), `N#Cc1ccc(O[C@H]2CC[C@H](NC(=O)c3ccc(C4CCN([C@H]5CC[C@H](n6ccc7c8c(C9CCC(=O)NC9=O)noc8ccc76)CC5)CC4)nn3)CC2)cc1Cl` (stereo partly shown) [Compound 55] registered an IC50 of under 1000 nM.

In turn, `CN(c1ccc(C#N)c(Cl)c1)[C@H]1CC[C@H](NC(=O)c2ccc(N3CCC(CN4CCc5ccc6c(C7CCC(=O)NC7=O)noc6c5CC4)CC3)cc2)CC1` (stereo partly shown) [Compound 59] yielded a 50% inhibitory concentration (IC50) with VCaP cells (Homo sapiens) of under 10 nM.

On to `CN(c1ccc(C#N)c(Cl)c1)[C@H]1CC[C@H](NC(=O)c2ccc(C3CCN(CC4Cc5ccc6c(C7CCC(=O)NC7=O)noc6c5C4)CC3)cc2)CC1` (stereo partly shown) [Compound 68], for which the IC50 in the assay on VCaP cells (Homo sapiens, VCaP, 168 h) was under 10 nM.

In the assay on LNCaP cells (Homo sapiens), `N#Cc1ccc(O[C@H]2CC[C@H](NC(=O)c3ccc(N4CCC(CN5Cc6cc7onc(C8CCC(=O)NC8=O)c7cc6C5)CC4)nn3)CC2)cc1Cl` (stereo partly shown) [Compound 100] had an IC50 of under 1000 nM.

In the assay on VCaP cells (Homo sapiens, VCaP, 168 h), `N#Cc1ccc(O[C@H]2CC[C@H](NC(=O)c3ccc(N4CCC(N5CC(CN6Cc7cc8onc(C9CCC(=O)NC9=O)c8cc7C6)C5)CC4)nn3)CC2)cc1Cl` (stereo partly shown) [Compound 101] came in with a half-inhibitory concentration (IC50) of under 10 nM.

`N#Cc1ccc(O[C@H]2CC[C@H](NC(=O)c3cnc(N4CCC(N5CC(CN6Cc7ccc8c(C9CCC(=O)NC9=O)coc8c7C6)C5)CC4)nc3)CC2)cc1Cl` (stereo partly shown) [Compound 103] came in with an IC50 in the assay on VCaP cells (Homo sapiens, VCaP, 168 h) of under 10 nM.

In the assay on VCaP cells (Homo sapiens, VCaP, 168 h), `N#Cc1ccc(O[C@H]2CC[C@H](NC(=O)c3cnc(N4CCC(N5CC(CN6CCc7ccc8c(C9CCC(=O)NC9=O)coc8c7C6)C5)CC4)nc3)CC2)cc1Cl` (stereo partly shown) [Compound 104] had an IC50 of under 10 nM.

Turning to `N#Cc1ccc(O[C@H]2CC[C@H](NC(=O)c3cnc(N4CCC(N5CC(CN6CCc7c(ccc8c(C9CCC(=O)NC9=O)coc78)C6)C5)CC4)nc3)CC2)cc1Cl` (stereo partly shown) [Compound 105], the 50% inhibitory concentration (IC50) in the assay on VCaP cells (Homo sapiens, VCaP, 168 h) is under 10 nM.

For the molecule `N#Cc1ccc(O[C@H]2CC[C@H](NC(=O)c3cnc(N4CCC(N5CC(CN6CCc7ccc8c(C9CCC(=O)NC9=O)coc8c7CC6)C5)CC4)nc3)CC2)cc1Cl` (stereo partly shown) [Compound 106], the half-maximal inhibitory concentration (IC50) in the assay with VCaP cells (Homo sapiens, VCaP, 168 h) is under 100 nM.

Regarding `CN(c1ccc(C#N)c(Cl)c1)[C@H]1CC[C@H](NC(=O)c2cnc(N3CCC(CN4Cc5ccc6c(C7CCC(=O)NC7=O)noc6c5C4)CC3)nc2)CC1` (stereo partly shown) [Compound 115], the half-maximal inhibitory concentration (IC50) in the assay with VCaP cells (Homo sapiens, VCaP, 168 h) was under 1000 nM.

Molecule `CN(c1ccc(C#N)c(Cl)c1)[C@H]1CC[C@H](NC(=O)c2cnc(N3CCC(CN4CCc5ccc6c(C7CCC(=O)NC7=O)noc6c5C4)CC3)nc2)CC1` (stereo partly shown) [Compound 116] gave a concentration for half-maximal inhibition (IC50) in the assay with LNCaP cells (Homo sapiens) of under 1000 nM.

In turn, `N#Cc1ccc(O[C@H]2CC[C@H](NC(=O)c3cnc(N4CCN(CC5Cc6ccc7c(C8CCC(=O)NC8=O)noc7c6C5)CC4)nc3)CC2)cc1Cl` (stereo partly shown) [Compound 124] showed a half-maximal inhibitory concentration (IC50) in the assay on VCaP cells of under 1000 nM.

`N#Cc1ccc(O[C@H]2CC[C@H](NC(=O)c3cnc(N4CCC(CN5CCc6ccc7c(C8CCC(=O)NC8=O)coc7c6CC5)CC4)nc3)CC2)cc1Cl` (stereo partly shown) [Compound 135]: the concentration for half-maximal inhibition (IC50) with LNCaP cells (Homo sapiens) is under 1000 nM.

`N#Cc1ccc(O[C@H]2CC[C@H](NC(=O)c3cnc(N4CCC(CN5Cc6ccc7c(N8CCC(=O)NC8=O)coc7c6C5)CC4)nc3)CC2)cc1Cl` [Compound 138] yielded an IC50 with LNCaP cells (Homo sapiens) of under 1000 nM.

With `N#Cc1ccc(O[C@H]2CC[C@H](NC(=O)c3cnc(N4CCC(CN5CCc6ccc7c(N8CCC(=O)NC8=O)coc7c6CC5)CC4)nc3)CC2)cc1Cl` [Compound 141], in the assay with LNCaP cells (Homo sapiens), the IC50 is under 1000 nM.

As to `N#Cc1ccc(O[C@H]2CC[C@H](NC(=O)c3cnc(N4CC[C@H](CN5CCc6c(ccc7c(C8CCC(=O)NC8=O)noc67)C5)C4)nc3)CC2)cc1Cl` (stereo partly shown) [Compound 143], in the assay with LNCaP cells (Homo sapiens), the IC50 was under 1000 nM.

Take `N#Cc1ccc(O[C@H]2CC[C@H](NC(=O)c3cnc(N4CC[C@@H](CN5CCc6c(ccc7c(C8CCC(=O)NC8=O)noc67)C5)C4)nc3)CC2)cc1Cl` (stereo partly shown) [Compound 144]: the concentration for half-maximal inhibition (IC50) in the assay on LNCaP cells (Homo sapiens) is under 1000 nM.
